Test results published in patent publication US20030152647A1, “Safe botanical drug for treating malignant pleural effusion and cancer and increasing immune function” (priority 2002, published 2003).

Test system: peritoneal macrophage
Assay: Phagocytosis of peritoneal macrophage in mice
Type: in vivo
Conditions: drugs subcutaneously daily for 7 days
Experimental: Added 0.02 ml of 5% washed chick red blood cell suspension to 0.5 ml of the peritoneal exudate, shaken gently to mix and incubated at 37° C. for 5 minutes. Dipped two coverslips, closed to each other, in the above mixture and incubate for 30 minutes for the migration of the macrophages along the coverslips then fixed and stained with Sharma stain. Examined microscopically for: Phagocytic rate—number of macrophages with phagocytized chick red blood cells per 100 macrophages counted.
Method of animal model was regular. The drugs were injected subcutaneously daily for 7 days.

O=P1(N(CCCl)CCCl)NCCCO1 (stereo not shown) [CY, Cyclophosphamide]
Phagocytic rate (x + SD, %): 7.52 ± 0.46%
